Reference: publication PMC12471299, “Secondary Metabolites of the Marine Sponge-Derived Fungus Aspergillus subramanianii 1901NT-1.40.2 and Their Antimicrobial and Anticancer Activities” (Marine Drugs, 2025)
Converted amounts (≈) assume the structure as drawn. Where two headings read alike, the source gives them in different places.

Columns and labels:
[1] = system: Escherichia coli VKPM (B-7935); assay: Biofilm formation assay (MTT); type: cell-based; details: E. coli
Method: (§1) The Gram-positive bacterial Staphylococcus aureus ATCC 21027, Gram-negative bacterial Escherichia coli VKPM (B-7935), and yeast-like fungal Candida albicans KMM 455 strains were fermented on solid medium Mueller Hinton broth with agar (16.0 g/L) in a Petri dish at 37 °C for 24 h. The antimicrobial activity of the compound was tested at concentrations ranging from 100 µM and lower. The effect of the compound on bacterial growth was estimated as described by. Gentamicin and amphotericin B were used as positive controls against S. aureus, E. coli, and C. albicans, and a 1% dimethyl sulfoxide (DMSO) solution in PBS was used as a negative control. The optical density of the bacterial suspension after 18 h was measured at λ = 620 nm. The effect of the compound on biofilm formation for 18 h was tested using MTT reagent (Sigma-Aldrich, St. Louis, MO, USA) in accordance with. The optical density of the obtained solution was measured at λ = 570 nm. A Multiskan FS spectrophotometer (Thermo Scientific Inc., Beverly, MA, USA) was used for both assays. The results were calculated as percentages of the control data and presented as minimal concentrations reduced by 50% of growth or biofilm formation (MIC50).

Candida albicans KMM 455 [2] = assay: Biofilm formation assay (MTT); type: cell-based; details: C. albicans
Method: as §1

[3] = system: Staphylococcus aureus ATCC 21027; assay: Biofilm formation assay (MTT); type: cell-based; details: S. aureus
Method: as §1

E. coli = system: E. coli; parameters: method as in PMID 28498358; details: cited from earlier work
H9c2 cardiomyocytes = assay: Cell viability assay (MTT); type: cell-based, rat
Excerpt: (§2) Rat cardiomyocyte H9c2 cells were kindly provided by Prof. Dr. Gunhild von Amsberg from the Martini-Klinik Prostate Cancer Center, University Hospital Hamburg-Eppendorf, Hamburg, Germany. The human HaCaT keratinocyte cell line was kindly provided by Prof. N. Fusenig (Cancer Research Centre, Heidelberg, Germany). Non-cancerous human breast epithelial MCF-10A cells were kindly provided by Dr. Irina Zhitnyak (N. N. Blokhin National Medical Research Center of Oncology, Moscow, Russia). Human breast cancer MCF-7 HTB-22 and MDA-MB-231 cells were obtained from the ATTC (Manassas, VA, USA).
(§3) H9c2 and HaCaT cells were cultured in DMEM with 10% fetal bovine serum and 1% penicillin/streptomycin (BioloT, St. Petersburg, Russia). MCF-7 and MDA-MB-231 cells were cultured in MEM (BioloT, St. Petersburg, Russia) with 10% fetal bovine serum (FBS) and 1% penicillin/streptomycin (BioloT, St. Petersburg, Russia). MCF 10A cells were cultured in DMEM F12 medium (BioloT, St. Petersburg, Russia) supplemented with 20% FBS, 20 ng/mL hrEGF (Sci-Store, Moscow, Russia), and 1% penicillin/streptomycin (BioloT, St. Petersburg, Russia). All cells were cultured at 37 °C in a humidified atmosphere containing 5% CO2.
(§4) H9c2 cells were seeded at a concentration of 3 × 10^3 cells/well. MCF-10A, MCF-7, and MDA-MB-231 cells were seeded at 5 × 10^3 cells/well, and HaCaT cells were seeded at 1 × 10^4 cells/well. The experiments were initiated after 24 h.
(§5) Compounds at concentrations up to 100 µM were added to the wells for 24h or 48 h, and the viability of the cells was measured using an MTT (3-(4,5-dimethylthiazol-2-yl)-2,5-diphenyltetrazolium bromide) assay, which was performed according to the manufacturer’s instructions (Sigma-Aldrich, Munich, Germany). […] DMSO was used as a control. The results are presented as percentages of the control data.

[4] = Cell viability assay (MTT); type: cell-based, rat; details: rat, H9c2 cardiomyocytes, read-out: Cytotoxicity IC50
Excerpt: as §2, §3, §4, §5

[5] = system: Escherichia coli VKPM (B-7935); assay: Antimicrobial assay, growth inhibition (optical density); type: cell-based; details: Escherichia coli; E. coli; read-out: total inhibition (MIC100) of growth
Method: as §1

Candida albicans KMM 455 [6] = assay: as above; type: cell-based; details: Candida albicans, C. albicans
Method: as §1

[7] = system: Staphylococcus aureus ATCC 21027; assay: as above; type: cell-based; details: Staphylococcus aureus, ATCC21027; S. aureus; read-out: total inhibition (MIC100) of growth
Method: as §1

[8] = system: MDA-MB-231 breast cancer cells; assay: Cell viability assay (MTT); type: cell-based, human
Excerpt: as §2, §3, §4, §5

[9] = system: MCF-10A breast epithelial cells; assay: Cell viability assay (MTT); type: cell-based, human; details: MCF10A
Excerpt: as §2, §3, §4, §5

[10] = system: MCF-7 breast cancer cells; assay: Cell viability assay (MTT); type: cell-based, human
Excerpt: as §2, §3, §4, §5

[11] = Cell viability assay (MTT); type: cell-based, human; details: human, read-out: Cytotoxicity IC50
Excerpt: as §2, §3, §4, §5

HaCaT keratinocytes = assay: Cell viability assay (MTT); type: cell-based, human
Excerpt: as §2, §3, §4, §5

In the case of `C=C(C)C1CCC23C(O)CCC(C)C2(C)CCC(C)C3C1c1c[nH]c2ccccc12` (stereo not drawn) [Compound 5, 10,23-dihydro-24,25-dehydroaflavinine], the “MIC100 of biofilm formation” value [1] is reported as 23.08 ± 2.00 µM, the “MIC100 of biofilm formation” value (Candida albicans KMM 455 [2]) is reported as 12.01 ± 1.01 µM and the “MIC100 of biofilm formation” value [3] is reported as 10.45 ± 0.96 µM. For the same compound, the MIC50 (E. coli) was 2.0 µg/mL (≈ 4.93 µM), the cell viability (H9c2 cardiomyocytes; H9c2, 24 h, 1.0 µM) was 101.9 ± 2.9 % of control and the cell viability (H9c2 cardiomyocytes; H9c2, 24 h, 10.0 µM) was 50.5 ± 1.8 % of control. For the same compound, the cell viability (H9c2 cardiomyocytes; H9c2, 24 h, 100.0 µM) was 33.6 ± 0.3 % of control, the cell viability (H9c2 cardiomyocytes; H9c2, 48 h, 1.0 µM) was 105.6 ± 3.4 % of control and the cell viability (H9c2 cardiomyocytes; H9c2, 48 h, 10.0 µM) was 94.0 ± 3.0 % of control. For the same compound, the cell viability (H9c2 cardiomyocytes; H9c2, 48 h, 100.0 µM) was 10.1 ± 0.2 % of control, the IC50 at 24 h ([4]; H9c2, 24 h) was 9.8 ± 1.3 µM and the IC50 at 48 h ([4]; H9c2, 48 h) was 57.2 ± 3 µM. The MIC [5] was 12.4 ± 1.02 µM (≈ 5.05 µg/mL), the MIC50 (Candida albicans KMM 455 [6]; KMM455, 18 h, 18 h) was 7 to 10 µM (≈ 2.84 to 4.06 µg/mL) and the MIC (Candida albicans KMM 455 [6]; KMM455, read-out: total inhibition (MIC100) of growth) was 11.5 ± 0.9 µM (≈ 4.66 µg/mL). The MIC [7] was 6.85 ± 0.53 µM (≈ 2.78 µg/mL), the cell viability ([8]; MDA-MB-231, 24 h, 1.0 µM) was 96.3 ± 7.5 % of control and the cell viability ([8]; MDA-MB-231, 24 h, 10.0 µM) was 91.3 ± 6.1 % of control. The cell viability ([8]; MDA-MB-231, 24 h, 100.0 µM) was 21.1 ± 0.9 % of control, the cell viability ([8]; MDA-MB-231, 48 h, 1.0 µM) was 103.2 ± 2.4 % of control and the cell viability ([8]; MDA-MB-231, 48 h, 10.0 µM) was 102.3 ± 4.1 % of control. For the same compound, the cell viability ([8]; MDA-MB-231, 48 h, 100.0 µM) was 10.6 ± 0.2 % of control, the cell viability ([9]; 24 h, 1.0 µM) was 101.7 ± 4.4 % of control and the cell viability ([9]; 24 h, 10.0 µM) was 95.4 ± 2.3 % of control. For the same compound, the cell viability ([9]; 24 h, 100.0 µM) was 16.1 ± 8.6 % of control, the cell viability ([9]; 48 h, 1.0 µM) was 92.0 ± 0.9 % of control and the cell viability ([9]; 48 h, 10.0 µM) was 93.9 ± 6.4 % of control. The cell viability ([9]; 48 h, 100.0 µM) was 9.9 ± 0.2 % of control, the cell viability ([10]; MCF-7, 24 h, 1.0 µM) was 100.5 ± 0.9 % of control and the cell viability ([10]; MCF-7, 24 h, 10.0 µM) was 97.0 ± 2.6 % of control. The cell viability ([10]; MCF-7, 24 h, 100.0 µM) was 10.0 ± 1.0 % of control, the cell viability ([10]; MCF-7, 48 h, 1.0 µM) was 78.5 ± 9.9 % of control and the cell viability ([10]; MCF-7, 48 h, 10.0 µM) was 81.6 ± 3.3 % of control. The cell viability ([10]; MCF-7, 48 h, 100.0 µM) was 21.2 ± 0.1 % of control, the IC50 at 24 h ([11]; HaCaT keratinocytes, 24 h) was 52.8 ± 1.1 µM and the IC50 at 48 h ([11]; HaCaT keratinocytes, 48 h) was 25.3 ± 0.8 µM. It also gave an IC50 at 24 h ([11]; MCF-7 breast cancer cells, MCF-7, 24 h) of 58.6 ± 4.2 µM, an IC50 at 48 h ([11]; MCF-7 breast cancer cells, MCF-7, 48 h) of 53.5 ± 1.1 µM and an IC50 at 24 h ([11]; MCF-10A breast epithelial cells, MCF10A, 24 h) of 61.5 ± 1.3 µM. It also gave an IC50 at 48 h ([11]; MCF-10A breast epithelial cells, MCF10A, 48 h) of 57.1 ± 2.8 µM, an IC50 at 24 h ([11]; MDA-MB-231 breast cancer cells, MDA-MB-231, 24 h) of 62.9 ± 3.1 µM and an IC50 at 48 h ([11]; MDA-MB-231 breast cancer cells, MDA-MB-231, 48 h) of 61.3 ± 2.1 µM. For the same compound, the cell viability (HaCaT keratinocytes; 24 h, 1.0 µM) was 92.3 ± 5.0 % of control, the cell viability (HaCaT keratinocytes; 24 h, 10.0 µM) was 88.3 ± 8.6 % of control and the cell viability (HaCaT keratinocytes; 24 h, 100.0 µM) was 7.8 ± 0.3 % of control. For the same compound, the cell viability (HaCaT keratinocytes; 48 h, 1.0 µM) was 72.2 ± 4.3 % of control, the cell viability (HaCaT keratinocytes; 48 h, 10.0 µM) was 56.8 ± 4.8 % of control and the cell viability (HaCaT keratinocytes; 48 h, 100.0 µM) was 16.8 ± 0.2 % of control.
